Experimental findings from PubChem BioAssay (NCI) are described below.

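Where inhibition never reached the appropriate level, the endpoint shown equals the highest concentration tested. Otherwise, values were interpolated linearly from a five-concentration, 48-hour dose response in 96-well plates. GI50 marks 50% less growth. TGI marks complete inhibition of growth.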 A value given as a limit tells only on which side of the number the result lay.

Test systems include A549 NSCLC; ACHN renal; HCT-15 colon; HOP-92 NSCLC; SK-MEL-28 melanoma; SK-OV-3 ovarian; SW-620 colon; TK-10 renal; SNB-78 CNS; DMS 273 small cell lung.
What all share (experiment): growth of human tumour cells (NCI), 48 h

For `c1cc(-c2cnn3nc(N4CCOCC4)ccc23)nc(NC2CC2)n1`, the GI50 is 7.87 µM with A549 NSCLC; 5.7 µM in the experiment with ACHN renal; 8.66 µM in the experiment on HCT-15 colon; 5.64 µM in the experiment on HOP-92 NSCLC; 6.64 µM with SK-MEL-28 melanoma; 14.6 µM with SK-OV-3 ovarian. Moreover, the values for the GI50 with SW-620 colon and in the experiment with TK-10 renal were 8.9 µM and 7.7 µM, respectively. For the same compound, the TGI is greater than 25 µM with A549 NSCLC; greater than 25 µM with ACHN renal; greater than 25 µM in the experiment on HCT-15 colon; greater than 25 µM in the experiment with HOP-92 NSCLC; greater than 23.7 µM with SK-MEL-28 melanoma; greater than 25 µM with SK-OV-3 ovarian. Moreover, the TGI in the experiment on SW-620 colon was greater than 25 µM; in the experiment on TK-10 renal, 20.3 µM.
As to `OCCCCC#Cc1ccccc1C#Cc1cccs1`, the GI50 in the experiment with A549 NSCLC was 17.4 µM; in the experiment with ACHN renal, 15.5 µM; with HCT-15 colon, 13.1 µM; in the experiment on HOP-92 NSCLC, 14.1 µM; in the experiment with SK-MEL-28 melanoma, 15.8 µM; with SK-OV-3 ovarian, 15.5 µM. In addition, the figures for the GI50 with SW-620 colon and in the experiment on TK-10 renal were 15.9 µM and 25.3 µM, respectively. Also, the TGI in the experiment with A549 NSCLC turned out to be 31.1 µM; in the experiment on ACHN renal, 28.8 µM; in the experiment with HCT-15 colon it was 26.5 µM; in the experiment with HOP-92 NSCLC, 28.7 µM; with SK-MEL-28 melanoma, 31.1 µM; in the experiment on SK-OV-3 ovarian, 30.6 µM. The values for the TGI in the experiment on SW-620 colon and in the experiment on TK-10 renal were 30.6 µM and 52.9 µM, respectively.
As for `C/C(CC(=O)Nc1ccc(NC(=O)/C(C)=N/NS(=O)(=O)c2ccc(C)cc2)cc1)=N\NS(=O)(=O)c1ccc(C)cc1`, the TGI in the experiment with A549 NSCLC, in the experiment on ACHN renal, in the experiment with HCT-15 colon, with HOP-92 NSCLC, with SK-MEL-28 melanoma and with SK-OV-3 ovarian was greater than 100 µM each time. The TGI in the experiment on SNB-78 CNS, in the experiment on SW-620 colon and in the experiment with TK-10 renal was greater than 100 µM in each case.
For the compound `N#CNc1nc(C(=O)Nc2ccc(Cl)cc2)cc(-c2ccccc2)n1`, the TGI with A549 NSCLC, in the experiment with ACHN renal, with DMS 273 small cell lung, in the experiment on HCT-15 colon, in the experiment with HOP-92 NSCLC and with SK-MEL-28 melanoma was greater than 100 µM in each case. Also, the TGI in the experiment with SNB-78 CNS and in the experiment on SW-620 colon was greater than 100 µM in each case.
As for `O/N=C1/C(=C/c2ccc(Cl)cc2)CCCC1C(NO)c1ccc(Cl)cc1` (stereo not drawn), the TGI was 57.4 µM in the experiment with A549 NSCLC; greater than 100 µM with ACHN renal; 41.2 µM with DMS 273 small cell lung; 46.8 µM with HCT-15 colon; 22.5 µM with SK-MEL-28 melanoma; greater than 100 µM in the experiment with SK-OV-3 ovarian. The TGI in the experiment on SNB-78 CNS was 48.5 µM; in the experiment on SW-620 colon, greater than 100 µM; in the experiment on TK-10 renal, greater than 100 µM.
Turning to `COc1ccc2nc(C3=CN(C4OC(CO)C(O)C(O)C4O)C4C=CC=CC34)sc2c1` (stereo not drawn), the GI50 in the experiment on A549 NSCLC was 28.3 µM; in the experiment on ACHN renal, 19 µM; in the experiment with HCT-15 colon, 32.4 µM; in the experiment with HOP-92 NSCLC, 67.4 µM; with SK-MEL-28 melanoma, greater than 100 µM; in the experiment with SK-OV-3 ovarian, 96 µM. The GI50 with SW-620 colon is 41.9 µM; in the experiment with TK-10 renal it was 27.3 µM. The TGI with A549 NSCLC was greater than 100 µM; with ACHN renal, 46.1 µM; in the experiment on HCT-15 colon, greater than 100 µM; with HOP-92 NSCLC, greater than 100 µM; in the experiment with SK-MEL-28 melanoma, greater than 100 µM; in the experiment on SK-OV-3 ovarian it was greater than 100 µM. For the same compound, the TGI in the experiment on SW-620 colon is greater than 100 µM; with TK-10 renal, 51.5 µM.
As to `Cc1sc2c(c1C)C(c1ccc(Cl)cc1)=N[C@@H](CC(=O)Nc1ccc(O)cc1)c1nnc(C)n1-2`, the GI50 is 2.6 µM in the experiment with A549 NSCLC; 1.28 µM in the experiment with ACHN renal; 1.46 µM in the experiment on HCT-15 colon; 0.0423 µM in the experiment with HOP-92 NSCLC; 5.31 µM in the experiment with SK-MEL-28 melanoma; 0.15 µM with SK-OV-3 ovarian. Further, the figures for the GI50 in the experiment with SW-620 colon and in the experiment with TK-10 renal were 10.6 µM and 0.0941 µM, respectively. Moreover, the TGI is 26.8 µM with A549 NSCLC; 29.9 µM in the experiment with ACHN renal; 14.9 µM in the experiment with HCT-15 colon; 13.1 µM in the experiment on HOP-92 NSCLC; 26.4 µM with SK-MEL-28 melanoma; 15 µM with SK-OV-3 ovarian. Also, the TGI in the experiment with SW-620 colon worked out at 32 µM; with TK-10 renal, 19 µM.
Consider `O=C1C(Cl)=C(Nc2ccc3c(c2NC2=C(Cl)C(=O)c4ccccc4C2=O)C(=O)c2ccccc2C3=O)C(=O)c2ccccc21`, for which the GI50 is 1.95 µM with A549 NSCLC; 2.15 µM with ACHN renal; 1.62 µM in the experiment on HCT-15 colon; 2.03 µM in the experiment on HOP-92 NSCLC; 2.87 µM with SK-MEL-28 melanoma; 6.52 µM in the experiment with SK-OV-3 ovarian. Besides, the GI50 with SW-620 colon is 2.93 µM; in the experiment with TK-10 renal, 7.26 µM. Also, the TGI in the experiment on A549 NSCLC was 4.61 µM; in the experiment with ACHN renal, 9.05 µM; with HCT-15 colon, 4.19 µM; in the experiment with HOP-92 NSCLC, 4.95 µM; in the experiment with SK-MEL-28 melanoma, 8.61 µM; with SK-OV-3 ovarian it was 20.6 µM. In addition, the TGI in the experiment with SW-620 colon amounted to 10.6 µM; in the experiment on TK-10 renal, 22.2 µM.
Consider `CCN1CCN(c2cc(C)nc(NCc3cc(Nc4ccnc5cc(Cl)ccc45)ccc3F)n2)CC1`, for which the GI50 in the experiment on A549 NSCLC was 5.1 µM; in the experiment with ACHN renal it was 2.89 µM; in the experiment on HCT-15 colon it was 2.19 µM; in the experiment with HOP-92 NSCLC it was 2.58 µM; with SK-MEL-28 melanoma, 1.84 µM; in the experiment on SK-OV-3 ovarian, 27.6 µM. The figures for the GI50 with SW-620 colon and in the experiment on TK-10 renal were 2.32 µM and 18.8 µM, respectively. Besides, the TGI in the experiment on A549 NSCLC is greater than 100 µM; in the experiment on ACHN renal it was 11.3 µM; with HCT-15 colon, 11.7 µM; with HOP-92 NSCLC, 19.4 µM; in the experiment on SK-MEL-28 melanoma it was 3.71 µM; in the experiment with SK-OV-3 ovarian it was 69.3 µM. The TGI in the experiment on SW-620 colon is 15.1 µM; in the experiment with TK-10 renal it was 45.4 µM.
For the compound `O=C(Nn1c2c(sc1=NC1CC1)C(=O)c1ccccc1C2=O)c1cc2ccc1CCc1ccc(cc1)CC2`, the GI50 with A549 NSCLC is 2.42 µM; in the experiment with ACHN renal, 1.39 µM; with HCT-15 colon it was 1.51 µM; in the experiment with HOP-92 NSCLC it was 2.26 µM; in the experiment with SK-MEL-28 melanoma, 2.4 µM; with SK-OV-3 ovarian, 7.03 µM. Also, the values for the GI50 with SW-620 colon and with TK-10 renal were 1.92 µM and 18.4 µM, respectively. Moreover, the TGI came to 6.07 µM in the experiment with A549 NSCLC; 3.03 µM in the experiment on ACHN renal; 3.24 µM in the experiment with HCT-15 colon; 14.4 µM in the experiment with HOP-92 NSCLC; 5.22 µM in the experiment on SK-MEL-28 melanoma; 21.4 µM in the experiment on SK-OV-3 ovarian. Also, the TGI in the experiment on SW-620 colon was found to be 4.32 µM; with TK-10 renal it was 34.7 µM.
